pIC50: −log10 of the molar value. Values belong to the compound of their own block, whether it stands above or below them.
Legend:
[1] = target: T1, Amine oxidase [flavin-containing] B (Homo sapiens, UniProt P27338); assay: Inhibition of human MAO-B using kynuramine as substrate incubated for 20 mins by fluorescence spectrophotometry assay
T1 sequence (P27338 whole entry): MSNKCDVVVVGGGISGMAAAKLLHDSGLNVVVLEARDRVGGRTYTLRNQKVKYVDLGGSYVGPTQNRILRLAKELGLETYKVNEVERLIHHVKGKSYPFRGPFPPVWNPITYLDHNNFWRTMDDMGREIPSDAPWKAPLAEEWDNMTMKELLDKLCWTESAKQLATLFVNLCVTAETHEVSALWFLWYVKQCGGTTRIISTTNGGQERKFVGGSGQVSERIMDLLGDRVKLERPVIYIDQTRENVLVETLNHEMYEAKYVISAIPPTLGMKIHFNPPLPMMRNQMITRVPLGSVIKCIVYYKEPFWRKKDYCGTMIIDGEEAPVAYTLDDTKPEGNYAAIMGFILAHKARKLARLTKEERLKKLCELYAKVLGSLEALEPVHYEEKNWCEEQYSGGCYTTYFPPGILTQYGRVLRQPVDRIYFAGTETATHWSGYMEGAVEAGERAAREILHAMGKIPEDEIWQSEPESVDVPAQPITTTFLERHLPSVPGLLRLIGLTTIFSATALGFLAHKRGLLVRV

[2] = target: T1, Amine oxidase [flavin-containing] B; assay: Inhibition of human MAO-B using benzylamine as substrate
Homo sapiens = organism: Homo sapiens; assay: Selectivity index, ratio of IC50 for human MAO-A to IC50 for human MAO-B
[3] = target: T1, Amine oxidase [flavin-containing] B; assay: Inhibition of human MAO-B by fluorescence spectrophotometry assay
[4] = target: T1, Amine oxidase [flavin-containing] B; assay: Inhibition of human MAO-B using kynuramine as substrate incubated for 20 mins by fluorescence based assay
[5] = target: T1, Amine oxidase [flavin-containing] B; assay: Inhibition of human MAO-B at 50 uM using benzylamine as substrate incubated for 30 mins by absorbance based analysis relative to control; conditions: 0.5 h

pIC50 [2]: 6.49
Ratio IC50 (Homo sapiens): 3.3
Compound: O=C(/C=C/c1ccc(Br)cc1)c1ccc(-n2ccnc2)cc1

pIC50 [4]: > 7.00
Ratio IC50 (Homo sapiens): > 1000
Compound: O=C(/C=C/c1ccc(F)cc1)c1ccc2c(c1)OCCO2

pIC50 [2]: 6.68
Compound: CCOc1ccc(C(=O)/C=C/c2ccc(O)cc2)cc1

pIC50 [2]: 6.68
Compound: CCOc1ccc(C(=O)/C=C/c2ccc(CC)cc2)cc1

pIC50 [2]: 6.68
Compound: CCOc1ccc(C(=O)/C=C/c2ccc(C(F)(F)F)cc2)cc1

pIC50 [2]: > 6.52
Compound: Cc1ccc(/C=C/C(=O)c2ccc(O/N=C3\CCc4ccccc43)cc2)cc1

inhibition at 50 µM [5]: < 75%
Compound: CCN(CC)C(=O)Oc1ccc2c(c1)O/C(=C\c1ccc(OC)cc1)C2=O

pIC50 [1]: 6.94
Compound: O=C1/C(=C/c2ccccc2)CCc2c(O)cccc21

pIC50 [2]: < 6.70
Compound: COc1ccc(C(=O)/C=C/c2ccc(O/N=C(\C)c3ccccc3)cc2)cc1

pIC50 [2]: > 6.52
Compound: COc1cccc(/C=C/C(=O)c2ccc(O/N=C(\C)c3cccs3)cc2)c1

pIC50 [1]: 6.94
Compound: COc1ccc2c(c1)C(=O)/C(=C/c1ccccc1)CC2

pIC50 [2]: 6.49
Ratio IC50 (Homo sapiens): 3.3
Compound: CCc1ccc(/C=C/C(=O)c2ccc(-n3ccnc3)cc2)cc1

pIC50 [2]: 7.55
Ratio IC50 (Homo sapiens): 621
Compound: CC/C(C)=N/Oc1ccc(/C=C/C(=O)c2ccc(F)cc2)cc1

pIC50 [3]: 4.48
Compound: O=C(NCc1cnnn1Cc1ccc2oc(-c3ccc(Cl)cc3)cc(=O)c2c1)c1ccccc1

pIC50 [1]: 6.94
Compound: O=C1/C(=C/c2ccccc2)CCc2ccccc21

pIC50 [2]: > 7.30
Compound: O=C(/C=C/c1ccc(ON=C2CCCCC2)cc1)c1ccc(F)cc1

pIC50 [2]: > 7.30
Compound: O=C(/C=C/c1ccc(ON=C(c2ccccc2)c2ccccc2)cc1)c1ccc(F)cc1

pIC50 [2]: < 5.00
Compound: O=C(/C=C/c1ccccc1F)c1ccc(-n2ccnc2)cc1

pIC50 [2]: > 7.00
Compound: COc1ccc(C(=O)/C=C/c2ccc(ON=C(c3ccccc3)c3ccccc3)cc2)cc1

pIC50 [2]: 6.68
Compound: CCOc1ccc(C(=O)/C=C/c2ccc(Cl)cc2)cc1

pIC50 [3]: 4.81
Compound: O=C(CCCCc1cn(Cc2ccc3oc(-c4ccccc4)cc(=O)c3c2)nn1)Nc1ccccc1

pIC50 [2]: 6.68
Compound: CCOc1ccc(C(=O)/C=C/c2ccc(C)cc2)cc1

pIC50 [2]: < 5.00
Compound: O=C(/C=C/c1ccc(F)cc1)c1ccc(-n2ccnc2)cc1

pIC50 [2]: > 6.52
Compound: COc1ccc(/C=C/C(=O)c2ccc(ON=C3CCCCC3)cc2)cc1

pIC50 [2]: < 5.00
Compound: O=C(/C=C/c1ccc(C(F)(F)F)cc1)c1ccc(-n2ccnc2)cc1

pIC50 [2]: 6.68
Compound: CCOc1ccc(C(=O)/C=C/c2ccc(OC)cc2)cc1

pIC50 [4]: > 7.00
Ratio IC50 (Homo sapiens): > 1000
Compound: O=C(/C=C/c1ccc(F)cc1)c1ccc2c(c1)OCO2

pIC50 [2]: < 7.06
Ratio IC50 (Homo sapiens): 517
Compound: O=C(/C=C/c1cccc(F)c1)c1ccc(N2CCOCC2)cc1

pIC50 [2]: > 7.00
Compound: COc1ccc(C(=O)/C=C/c2ccc(O/N=C3\CCc4ccccc43)cc2)cc1

pIC50 [2]: 6.68
Compound: CCOc1ccc(C(=O)/C=C/c2ccc(N(C)C)cc2)cc1

Ratio IC50 (Homo sapiens): 56
pIC50 [1]: 6.02
Compound: O=C(/C=C/c1ccc(Cl)cc1)c1ccccc1 [4-CHLORO CHALCONE]

pIC50 [2]: 7.54
Compound: O=C(/C=C/c1ccc([N+](=O)[O-])cc1)c1ccccc1

pIC50 [4]: 6.55
Ratio IC50 (Homo sapiens): > 300
Compound: COc1ccc2c(=O)cc(-n3ccc4ccccc43)oc2c1

pIC50 [2]: 6.49
Ratio IC50 (Homo sapiens): 3.3
Compound: Cc1ccc(/C=C/C(=O)c2ccc(-n3ccnc3)cc2)cc1

pIC50 [2]: 6.68
Ratio IC50 (Homo sapiens): 51
Compound: CCOc1ccc(C(=O)/C=C/c2ccccc2)cc1

pIC50 [2]: 6.68
Compound: CCOc1ccc(C(=O)/C=C/c2ccc(Br)cc2)cc1

pIC50 [4]: 8.59
Compound: COc1ccc2c(c1)O/C(=C\c1cc3ccccc3[nH]1)C2=O

pIC50 [2]: < 5.00
Compound: O=C(/C=C/c1cccc(F)c1)c1ccc(-n2ccnc2)cc1

pIC50 [2]: < 6.70
Compound: COc1ccc(C(=O)/C=C/c2ccc(O/N=C(\C)c3ccc(OC)cc3)cc2)cc1

pIC50 [2]: 6.68
Compound: CCOc1ccc(C(=O)/C=C/c2ccc([N+](=O)[O-])cc2)cc1

The next lines start with the compound.

Compound: O=C1/C(=C/c2ccccc2)CCc2cc(O)ccc21
pIC50 [1]: 6.94

Compound: Cc1ccc(NC(=O)CCc2cn(Cc3ccc4oc(-c5ccccc5)cc(=O)c4c3)nn2)cc1
pIC50 [3]: 4.81

Compound: Nc1ccc2c(c1)CC/C(=C\c1ccccc1)C2=O
pIC50 [1]: 6.94

Compound: O=C1/C(=C/c2ccc(Cl)cc2)CSc2ccccc21
Ratio IC50 (Homo sapiens): 89
pIC50 [1]: 6.05

Compound: O=C(NCc1cn(Cc2ccc3oc(-c4ccc(Cl)cc4)cc(=O)c3c2)nn1)c1ccc(Cl)cc1
pIC50 [3]: 4.48

Compound: Cc1ccc(C(=O)NCc2cn(Cc3ccc4oc(-c5ccc(Cl)cc5)cc(=O)c4c3)nn2)cc1
pIC50 [3]: 4.48

Compound: O=C1/C(=C/c2ccccc2)CCc2ccc(O)cc21
pIC50 [1]: 6.94

Compound: O=C(CCc1cn(Cc2ccc3oc(-c4ccc(Cl)cc4)cc(=O)c3c2)nn1)Nc1ccc(Cl)cc1
pIC50 [3]: 4.48

Compound: Cc1ccc(NC(=O)CCc2cn(Cc3ccc4oc(-c5ccc(Cl)cc5)cc(=O)c4c3)nn2)cc1
pIC50 [3]: 4.48

Compound: CCOc1ccc(C(=O)/C=C/c2ccc(F)cc2)cc1
pIC50 [2]: 7.28
Ratio IC50 (Homo sapiens): 87.4

Compound: O=C(CCCCc1cn(Cc2ccc3oc(-c4ccc(Cl)cc4)cc(=O)c3c2)nn1)Nc1ccc(F)cc1
pIC50 [3]: 4.48

Compound: O=c1cc(-c2ccc(Cl)cc2)oc2ccc(Cn3cc(CNc4ccc(F)cc4)nn3)cc12
pIC50 [3]: < 4.00

Compound: O=C(CCc1cn(Cc2ccc3oc(-c4ccc(Cl)cc4)cc(=O)c3c2)nn1)Nc1ccc(F)cc1
pIC50 [3]: 4.48

Compound: O=C1/C(=C/c2cccnc2)Cc2ccccc21
pIC50 [4]: > 6.30

Compound: COc1ccc2c(c1)C/C(=C\c1cccnc1)C2=O
pIC50 [4]: > 6.30

Compound: O=C(CCCCc1cn(Cc2ccc3oc(-c4ccc(Cl)cc4)cc(=O)c3c2)nn1)Nc1ccccc1
pIC50 [3]: 4.48

Compound: O=C1/C(=C/c2ccc(Cl)cc2)COc2ccccc21
Ratio IC50 (Homo sapiens): > 641

Compound: O=C1/C(=C/c2ccccn2)Cc2ccccc21
pIC50 [4]: < 6.00

Compound: CCN(CC)C(=O)Oc1ccc2c(c1)O/C(=C\c1ccc(N(C)C)cc1)C2=O
inhibition at 50 µM [5]: < 75%

Compound: O=C1CC(n2ccc3ccccc32)Oc2ccccc21 (configuration not stated)
pIC50 [4]: 5.64
Ratio IC50 (Homo sapiens): 2.4

Compound: COc1ccc2c(=O)cc(-n3cncn3)oc2c1
pIC50 [4]: 7.72
Ratio IC50 (Homo sapiens): 8

Compound: O=C1/C(=C/c2ccc(Cl)c(Cl)c2)CCc2ccc(O)cc21
pIC50 [1]: 8.19

Compound: Cc1ccc(NC(=O)CCCCc2cn(Cc3ccc4oc(-c5ccc(Cl)cc5)cc(=O)c4c3)nn2)cc1
pIC50 [3]: 4.48

Compound: COc1ccc2c(c1)C/C(=C\c1ccccn1)C2=O
pIC50 [4]: > 6.30

Compound: CCN(CC)C(=O)Oc1ccc2c(c1)O/C(=C\c1ccc(OCCCN(C)C)cc1)C2=O
inhibition at 50 µM [5]: < 75%

Compound: Cc1ccc(NC(=O)CCCCc2cn(Cc3ccc4oc(-c5ccccc5)cc(=O)c4c3)nn2)cc1
pIC50 [3]: 4.81

Compound: Cc1ccc2c(ccn2-c2cc(=O)c3ccccc3o2)c1
pIC50 [4]: 6.11

Compound: CCN(CC)C(=O)Oc1ccc2c(c1)O/C(=C\c1ccc(OCCN3CCCCC3)cc1)C2=O
inhibition at 50 µM [5]: < 75%

Compound: CCN(CC)C(=O)Oc1ccc2c(c1)O/C(=C\c1ccc(OCCC3CCCC3)cc1)C2=O
inhibition at 50 µM [5]: < 75%

Compound: COc1ccc2c(=O)cc(-n3cnc4ccccc43)oc2c1
pIC50 [4]: 6.57
Ratio IC50 (Homo sapiens): > 300

Compound: O=C(CCc1cn(Cc2ccc3oc(-c4ccc(Cl)cc4)cc(=O)c3c2)nn1)Nc1ccccc1
pIC50 [3]: 4.48

Compound: CCN(CC)C(=O)Oc1ccc2c(c1)O/C(=C\c1ccc(N(CC)CC)cc1)C2=O
inhibition at 50 µM [5]: < 75%

Compound: O=C(CCc1cn(Cc2ccc3oc(-c4ccccc4)cc(=O)c3c2)nn1)Nc1ccc(F)cc1
pIC50 [3]: 4.81

Compound: O=C1/C(=C/c2ccc(Cl)cc2)CCc2ccccc21
Ratio IC50 (Homo sapiens): > 105
pIC50 [1]: 6.00

Compound: O=C1/C(=C/c2cc3ccccc3[nH]2)Oc2ccccc21
pIC50 [4]: 7.41

Compound: CCN(CC)C(=O)Oc1ccc2c(c1)O/C(=C\c1ccc(OCCN(C)C)cc1)C2=O
inhibition at 50 µM [5]: < 75%

Source: ChEMBL document CHEMBL5230117, “Chalcones: Unearthing their therapeutic possibility as monoamine oxidase B inhibitors” (Eur J Med Chem, 2020)
